The source of these data is patent publication US5254584A, “N-acetonylbenzamides and their use as fungicides” (Rohm and Haas Company, priority 1992, dated 1993).

Values after ≈ are worked out from the molar mass of the structure shown.

One data set relates to strawberry plants. Briefly: In vivo phytotoxic activity, foliar spray, strawberry. Also noted: key: +: indicating presence of a plant growth regulatory effect as compared to a control to which a solvent mixture (acetone/water/methanol) lacking the test compound was applied; 0: A zero indicates no apparent effect. Conditions: foliar spray 2200 g/Ha, seven days after application. Here is the method: (§1) The compounds of Examples 1 and 12 were tested in vivo for phytotoxic activity by applying the compounds to the foliage of cucumber, tomato, bean, lettuce and strawberry plants as a spray at a rate of 2200 g/Ha. The plants were evaluated seven days after spray application of the compounds.
(§2) Phototoxicity scores are set forth below in Table 6. The phytotoxicity scores use a symbol, "+", indicating presence of a plant growth regulatory effect as compared to a control to which a solvent mixture (acetone/water/methanol) lacking the test compound was applied. A zero indicates no apparent effect. Each score is a composite representing the mode value for three replicate plants.

Data set [1] relates to Piricularia oryzae. The experiment in a line: organism not typed. Conditions: 72 h, read-out: PIR percent inhibition of fungal growth. The data set is classed as cell-based.
For a further data set, the system named is cucumber plants. Briefly: In vivo phytotoxic activity, foliar spray, cucumber. Further details: key: +: indicating presence of a plant growth regulatory effect as compared to a control to which a solvent mixture (acetone/water/methanol) lacking the test compound was applied; 0: A zero indicates no apparent effect. Conditions: foliar spray 2200 g/Ha, seven days after application. Here is the method: as §1, §2

Data set [2] deals with Plasmopara viticola. The experiment in a line: Downy Mildew of Grapes (GDM). To be noted: 300 g/Ha; 7-8 days; grape. The data set is classed as in vivo.
Data set [3] relates to Botrytis cinerea. The experiment in a line: Botrytis Gray Mold on Tomato (BOT). The data set is classed as in vivo. To be noted: 300 g/Ha, 5-7 days.
Data set [4] deals with Phytophthora infestans. The data set is classed as in vivo. To be noted: 300 g/Ha; 6 days after inoculation; tomato.
Another data set has as its system Monilinia fructicol. The experiment in a line: microbe, parasite or virus in culture. The data set is classed as cell-based. To be noted: 72 h, 3 days at room temperature, read-out: MON percent inhibition of fungal growth.
In the next data set the test system is Fusarium roseum. Briefly: microbe, parasite or virus in culture. Conditions: Fusarium sambucinum, 72 h, read-out: FUS percent inhibition of fungal growth. The data set is classed as cell-based.
For another data set, the system named is Cercospora beticola. The experiment in a line: microbe, parasite or virus in culture. The data set is classed as cell-based. Conditions: 72 h, 3 days at room temperature, read-out: CER percent inhibition of fungal growth.
Another data set concerns tomato plants. The experiment in a line: In vivo phytotoxic activity, foliar spray, tomato. Further details: key: +: indicating presence of a plant growth regulatory effect as compared to a control to which a solvent mixture (acetone/water/methanol) lacking the test compound was applied; 0: A zero indicates no apparent effect. To be noted: foliar spray 2200 g/Ha, seven days after application. Here is the method: as §1, §2

In data set [5] the test system is Erysiphe graminis (f. sp. tritici). The experiment in a line: Wheat Powdery Mildew (WPM). The data set is classed as in vivo. To be noted: 300 g/Ha; 8 to 10 days after inoculation; Pennol wheat. Here is the method: Wheat Powdery Mildew (WPM) Erysiphe graminis (f. sp. tritici) was cultured on Pennol wheat seedlings in a controlled temperature room at 65° F. to 75° F. Mildew spores were shaken from the culture plants onto Pennol wheat seedlings which had been sprayed previously with the fungicide compound. The inoculated seedlings were kept in a controlled temperature room at 65° F. to 75° F. and subirrigated. […] The fungicidal activity of compound of Example 12 against the above discussed phytopathogenic fungi is set forth in Table 5 as percent disease control at an application rate of 300 g/Ha.

For data set [6], the system named is Pseudoperonospora cubensis. Briefly: Cucumber Downy Mildew (CDM). Conditions: in vivo.
In a further data set the test system is Pythium ultimum. The experiment in a line: microbe, parasite or virus in culture. The data set is classed as cell-based. Conditions: Globisporangium ultimum, 72 h, 3 days at room temperature, read-out: PYU percent inhibition of fungal growth.
For another data set, the system named is Venturia inaequalis. Briefly: Fungitoxicity assay against Venturia inaequalis (in vitro, microtiter MIC). The data set is classed as cell-based. Conditions: 168 h, minimum inhibitory concentration, 7 days at 25° C. Here is the method: The compounds of Examples 1-20 were tested in vitro for fungicidal activity and phytotoxicity. A. The compounds were tested in vitro for fungicidal activity against Pythium ultimum, Botrytis cinerea and Venturia inaequalis. Fungitoxicity assay against Venturia inaequalis: Test compounds were dissolved in dimethylsulfoxide at 1 milligram per milliliter (mg/ml), and 50 ul added to 950 ul of yeast extract-dextrose medium (YED, 0.4% yeast extract, 2% dextrose) to give 50 part per million (ppm) solutions. Minimum inhibitory concentration (MIC) values were determined using a microtiter assay with twofold serial dilutions of the prepared 50 ppm solutions (100 ul) in YED medium. Inoculum consisted of a spore suspension of V. inaequalis in YED medium at 2.5×10^5 spores per ml. […] Results of the testing for fungicidal activity against the above named fungi are set forth below in Table 3 as Pythium EC50 (ppm), Botrytis EC50 (ppm) and Venturia MIC (ppm), respectively.

Data set [7] relates to Colletotrichum lagenarium. The experiment in a line: microbe, parasite or virus in culture. The data set is classed as cell-based. Conditions: Colletotrichum orbiculare, 72 h, 3 days at room temperature, read-out: COL percent inhibition of fungal growth.
A further data set deals with bean plants. Briefly: In vivo phytotoxic activity, foliar spray, bean. Also noted: key: +: indicating presence of a plant growth regulatory effect as compared to a control to which a solvent mixture (acetone/water/methanol) lacking the test compound was applied; 0: A zero indicates no apparent effect. To be noted: foliar spray 2200 g/Ha, seven days after application. Here is the method:
as §1, §2

The subject of data set [8] is Phytophthora infestans. The data set is classed as in vivo. To be noted: 300 g/Ha; applied two days after inoculation (curative); tomato.
Data set [9] deals with Pseudocercosporella herpotrichoides. The experiment in a line: microbe, parasite or virus in culture. To be noted: Oculimacula yallundae, 72 h, 3 days at room temperature, read-out: PSH percent inhibition of fungal growth. The data set is classed as cell-based.
The next data set concerns Rhizoctonia solani. Briefly: microbe, parasite or virus in culture. The data set is classed as cell-based. To be noted: 72 h, 3 days at room temperature, read-out: RHI percent inhibition of fungal growth.
For data set [10], the system named is Botrytis cinerea. Briefly: microbe, parasite or virus in culture. The data set is classed as cell-based. To be noted: 72 h, 3 days at room temperature, read-out: BOC percent inhibition of fungal growth.
Another data set relates to lettuce plants. Briefly: In vivo phytotoxic activity, foliar spray, lettuce. Further details: key: +: indicating presence of a plant growth regulatory effect as compared to a control to which a solvent mixture (acetone/water/methanol) lacking the test compound was applied; 0: A zero indicates no apparent effect. To be noted: foliar spray 2200 g/Ha, seven days after application. Here is the method:
as §1, §2

Data set [11] has as its system Plasmopara viticola. The experiment in a line: Downy Mildew of Grapes--Curative (GDC). To be noted: in vivo.
Data set [12] has as its system Piricularia oryzae. The data set is classed as in vivo. Conditions: 300 g/Ha; seven to eight days after inoculation; Nato rice.

For `CCC(C)(NC(=O)c1cc(C)cc(C=NOC)c1)C(=O)CCl` (centres unmarked) [Example 12, N-[3'-(1'-chloro-3'-methyl-2'-oxopentan)]-3-methoxyiminomethyl-5-methylbenzamide], in the data set with strawberry plants, the “phytotoxicity score, Strawberry” value came to 0. Besides, the inhibition at 25 ppm in the data set with Piricularia oryzae [1] is 100%; in the data set on Monilinia fructicol it was 100%; with Fusarium roseum, 0%; in the data set with Cercospora beticola it was 100%; with Pythium ultimum, 100%; in data set [7] it was 100%. Besides, the inhibition at 25 ppm in data set [9] stood at 100%; in the data set on Rhizoctonia solani it was 0%; with Botrytis cinerea [10], 100%. The “phytotoxicity score, Cucumber” value in the data set with cucumber plants stood at 0. The “GDM percent disease control” value in the data set on Plasmopara viticola [2] is recorded as 100%. For the same compound, the “BOT percent disease control” value in the data set on Botrytis cinerea [3] came to 100%. For the same compound, the “TLB percent disease control” value in the data set with Phytophthora infestans [4] was 100%. In addition, in the data set with tomato plants, the “phytotoxicity score, Tomato” value stood at 0. Further, the “WPM percent disease control” value in data set [5] worked out at 75%. For the same compound, the “CDM percent disease control” value in data set [6] is on record as 99%. Moreover, it took 0.1 µg/mL (≈ 0.308 µM) to inhibit growth in the data set with Venturia inaequalis (MIC). Further, the “phytotoxicity score, Bean” value in the data set on bean plants worked out at 0. Further, the “TLC percent disease control” value with Phytophthora infestans [8] is reported as 99%. The “phytotoxicity score, Lettuce” value with lettuce plants was found to be 0. In addition, in the data set on Plasmopara viticola [11], the “GDC percent disease control” value is reported as 50%. For the same compound, the “RB percent disease control” value in the data set on Piricularia oryzae [12] is 75%.

The inhibition is the share of the control response that was lost under treatment. As a reminder, the MIC is the smallest concentration in the dilution series that meets the test's criterion for growth inhibition.
